Experimental data: US20050175599A1, “Process for producing substance” (Kyowa Hakko Kogyo Co., Ltd., priority 2001, published 2005)

Tests used:
[1] = system: transformant cell line 61-33γ (host YB2/0) producing a chimeric anti-GD3 antibody; test: Batch culture of antibody-producing cells in Q10-containing serum-free medium (Example 1); format: cell-based, rat; details: Q10-added culture, 500 μM Q10 (added as SANOMIT), batch culture 6 days
Protocol: The following batch culture was performed with transformant cell line 61-33γ (FERM BP-7325, WO 01/29246) which was obtained by using hybridoma cell line YB2/0 derived from a rat myeloma cell line as a host cell and produces a chimeric anti-GD3 antibody. […]
From the start to the completion of culturing, the liquid culture was sampled once a day, to assay the viable cell density (cells/mL) and the antibody concentration (μg/mL) respectively. Further, the viable cell density was measured by a dye-exclusion method using 0.4% trypan blue solution.
The cumulative number of viable cells is shown as the total sum of the viable cell density multiplied by the time as elapsed. In the present Example, the viable cell density was measured once a day, and the cumulative number of viable cells was shown as value of the additive sum of the individual viable cell densities measured each time (cells/mL×days).
Additionally, the specific antibody production rate and the relative specific antibody production rate were calculated respectively by the following equations. […]

[2] = system: transformant cell line NS0/LCA-CCR4 producing chimeric anti-CCR4 antibody; test: Batch culture of antibody-producing cells in Q10-containing serum fraction-added medium (Example 4); format: cell-based, mouse; details: 100 μmol/L Q10 (added as SANOMIT), 4th day
Protocol: The batch culture was performed using transformant cell line NS0/LCA-CCR4 (FERM BP-7964) producing chimeric anti-CCR4 antibody as prepared in Reference Example 1. […]
The cumulative number of viable cells is shown as the total sum of the viable cell density multiplied by the time as elapsed. In the present Example, as the viable cell density was measured once, the cumulative number of viable cells was calculated by the following equation as a trapezoidal area formed by the change of the cell density with time related to the inoculated cell density and the measured cell density. Cumulative number of viable cells (cells/mL×days)=(inoculated cell density+measured cell density)×time as elapsed÷2
The specific antibody production rate and the relative specific antibody production rate were calculated respectively by the method described in Example 1.
(3) Quantitative Determination of an Antibody in a Culture Supernatant by IgG-ELISA
The concentration of chimeric anti-CCR4 antibody in the culture supernatant was measured as follows. […]

COC1=C(OC)C(=O)C(C/C=C(\C)CC/C=C(\C)CC/C=C(\C)CC/C=C(\C)CC/C=C(\C)CC/C=C(\C)CC/C=C(\C)CC/C=C(\C)CC/C=C(\C)CCC=C(C)C)=C(C)C1=O [Q10]
cumulative number of cells on the completion of culturing ([1]; Q10-free culture 1.71×10^7): 1.51×10^7 cells/mL×days
relative specific antibody production rate ([1]; Q10-free culture = 100%): 166.3%
cumulative number of cells on the completion of culturing ([2]; Q10-free culture 1.59×10^6): 1.34×10^6 cells/mL×days
relative specific antibody production rate ([2]; Q10-free culture = 100%): 131.9%
